In this assay the test system is HEK293-STF3A cells. Kind of assay: STF3A assay (STF luciferase reporter in Wnt3A-expressing HEK293 cells). Type of assay: cell-based. The note with it: Homo sapiens, 24 h, 1 day of treatment. The procedure, abridged:
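HEK293 cells carrying the STF reporter and expressing Wnt3A, seeded 2×10^4 per well overnight, then treated 1 day with compound at final 50 μM to 1.5 nM. Luciferase activity read by luminescence after Steady-Glo reagent, 10 min at room temperature.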
A general note: Reporter assays use an easily measured gene product as a stand-in for the process of interest.

The term IC50 denotes the concentration that inhibits the measured activity by half.

Regarding `CN1C(=O)C2=C(C1=O)N(CC(=O)Nc1ccc(-c3ccccc3)cc1F)CCC2` [Compound 83, N-(3-fluorobiphenyl-4-yl)-2-(6-methyl-5,7-dioxo-2,3,4,5,6,7-hexahydro-1H-pyrrolo[3,4-b]pyridin-1-yl)acetamide], the concentration for half-maximal inhibition (IC50) is < 100 nM.

Consider `CN1C(=O)C2=C(C1=O)N(CC(=O)Nc1ccc(-c3ccccc3F)nn1)CCC2` [Compound 84, N-(6-(2-fluorophenyl)pyridazin-3-yl)-2-(6-methyl-5,7-dioxo-2,3,4,5,6,7-hexahydro-1H-pyrrolo[3,4-b]pyridin-1-yl)acetamide], for which the IC50 was < 100 nM.

Turning to `Cc1ccc(-c2ccc(NC(=O)CN3CCCC4=C3C(=O)N(C3CC3)C4=O)nc2)cn1` [Compound 85, 2-(6-cyclopropyl-5,7-dioxo-2,3,4,5,6,7-hexahydro-1H-pyrrolo[3,4-b]pyridin-1-yl)-N-(6′-methyl-[3,3′-bipyridin]-6-yl)acetamide], the half-inhibitory concentration (IC50) is < 100 nM.

For the molecule `Cc1ccc(-c2ccc(NC(=O)CN3CCCC4=C3C(=O)N(C3CC3)C4=O)nn2)cn1` [Compound 86, 2-(6-cyclopropyl-5,7-dioxo-2,3,4,5,6,7-hexahydro-1H-pyrrolo[3,4-b]pyridin-1-yl)-N-(6-(6-methylpyridin-3-yl)pyridazin-3-yl)acetamide], the concentration for half-maximal inhibition (IC50) was < 100 nM.

Take `O=C(CN1CCCC2=C1C(=O)N(C1CC1)C2=O)Nc1ccc(-c2cncc(F)c2)nc1` [Compound 87, 2-(6-cyclopropyl-5,7-dioxo-2,3,4,5,6,7-hexahydro-1H-pyrrolo[3,4-b]pyridin-1-yl)-N-(5′-fluoro-[2,3′-bipyridin]-5-yl)acetamide]: the IC50 was < 100 nM.

Regarding `CN1C(=O)C2=C(C1=O)N(CC(=O)Nc1ccc(-c3ccncc3)cn1)CCC2` [Compound 88, N-([3,4′-bipyridin]-6-yl)-2-(6-methyl-5,7-dioxo-2,3,4,5,6,7-hexahydro-1H-pyrrolo[3,4-b]pyridin-1-yl)acetamide], the IC50 was < 1000 nM.

For the molecule `O=C(CN1CCCC2=C1C(=O)N(C1CC1)C2=O)Nc1ccc(-c2cncnc2)cn1` [Compound 89, 2-(6-cyclopropyl-5,7-dioxo-2,3,4,5,6,7-hexahydro-1H-pyrrolo[3,4-b]pyridin-1-yl)-N-(5-(pyrimidin-5-yl)pyridin-2-yl)acetamide], the IC50 was < 100 nM.

Regarding `O=C(CN1CCCC2=C1C(=O)N(C1CC1)C2=O)Nc1ccc(-c2cncnc2)cc1` [Compound 90, 2-(6-cyclopropyl-5,7-dioxo-2,3,4,5,6,7-hexahydro-1H-pyrrolo[3,4-b]pyridin-1-yl)-N-(4-(pyrimidin-5-yl)phenyl)acetamide], the IC50 was < 100 nM.

Take `CC(C(=O)Nc1ccc(-c2ccc(F)nc2)cn1)N1CCCC2=C1C(=O)N(C)C2=O` (stereo not shown) [Compound 96, N-(6′-fluoro-3,3′-bipyridin-6-yl)-2-(6-methyl-5,7-dioxo-2,3,4,5,6,7-hexahydro-1H-pyrrolo[3,4-b]pyridin-1-yl)propanamide]: the half-maximal inhibitory concentration (IC50) was < 1000 nM.

As to `CC(C(=O)Nc1ccc(-c2cccnc2F)cn1)N1CCCC2=C1C(=O)N(C)C2=O` (stereo not shown) [Compound 97, N-(2′-fluoro-3,3′-bipyridin-6-yl)-2-(6-methyl-5,7-dioxo-2,3,4,5,6,7-hexahydro-1H-pyrrolo[3,4-b]pyridin-1-yl)propanamide], the IC50 was < 100 nM.

Regarding `COc1cc(NC(=O)CN2CCCC3=C2C(=O)N(C)C3=O)ccc1-c1ccccc1` [Compound 99, N-(2-methoxy-[1,1′-biphenyl]-4-yl)-2-(6-methyl-5,7-dioxo-2,3,4,5,6,7-hexahydro-1H-pyrrolo[3,4-b]pyridin-1-yl)acetamide], the IC50 is < 10000 nM.

`CN1C(=O)C2=C(C1=O)N(CC(=O)Nc1ccc(-c3cncc(F)c3)nc1)CCC2` [Compound 100, N-(5′-fluoro-[2,3′-bipyridin]-5-yl)-2-(6-methyl-5,7-dioxo-2,3,4,5,6,7-hexahydro-1H-pyrrolo[3,4-b]pyridin-1-yl)acetamide]: the concentration for half-maximal inhibition (IC50) was < 100 nM.

In the case of `CN1C(=O)C2=C(C1=O)N(CC(=O)Nc1ccc(-c3cncnc3)cn1)CCC2` [Compound 101, 2-(6-methyl-5,7-dioxo-2,3,4,5,6,7-hexahydro-1H-pyrrolo[3,4-b]pyridin-1-yl)-N-(5-(pyrimidin-5-yl)pyridin-2-yl)acetamide], the IC50 was < 100 nM.

Take `O=C(CN1CCCC2=C1C(=O)N(C1CC1)C2=O)Nc1ccc(-c2cncnc2)nc1` [Compound 102, 2-(6-cyclopropyl-5,7-dioxo-2,3,4,5,6,7-hexahydro-1H-pyrrolo[3,4-b]pyridin-1-yl)-N-(6-(pyrimidin-5-yl)pyridin-3-yl)acetamide]: the half-inhibitory concentration (IC50) is < 100 nM.

In the case of `CN1C(=O)C2=C(C1=O)N(CC(=O)Nc1ccc(-c3cncnc3)nc1)CCC2` [Compound 103, 2-(6-methyl-5,7-dioxo-2,3,4,5,6,7-hexahydro-1H-pyrrolo[3,4-b]pyridin-1-yl)-N-(6-(pyrimidin-5-yl)pyridin-3-yl)acetamide], the IC50 is < 1000 nM.

On to `O=C(CN1CCCC2=C1C(=O)N(C1CC1)C2=O)Nc1ccc(-c2cccnc2F)cn1` [Compound 104, 2-(6-cyclopropyl-5,7-dioxo-2,3,4,5,6,7-hexahydro-1H-pyrrolo[3,4-b]pyridin-1-yl)-N-(2′-fluoro-[3,3′-bipyridin]-6-yl)acetamide], for which the IC50 is < 100 nM.

Regarding `O=C(CN1CCCC2=C1C(=O)N(C1CC1)C2=O)Nc1ccc(-c2ccc(F)nc2)cn1` [Compound 105, 2-(6-cyclopropyl-5,7-dioxo-2,3,4,5,6,7-hexahydro-1H-pyrrolo[3,4-b]pyridin-1-yl)-N-(6′-fluoro-[3,3′-bipyridin]-6-yl)acetamide], the IC50 is < 100 nM.

For the molecule `O=C(CN1CCCC2=C1C(=O)N(C1CC1)C2=O)Nc1ccc(-c2cncc(F)c2)cn1` [Compound 106, 2-(6-cyclopropyl-5,7-dioxo-2,3,4,5,6,7-hexahydro-1H-pyrrolo[3,4-b]pyridin-1-yl)-N-(5′-fluoro-[3,3′-bipyridin]-6-yl)acetamide], the IC50 is < 100 nM.

For the molecule `O=C(CN1CCCC2=C1C(=O)N(C1CC1)C2=O)Nc1ncc(-c2cccnc2)cc1F` [Compound 107, 2-(6-cyclopropyl-5,7-dioxo-2,3,4,5,6,7-hexahydro-1H-pyrrolo[3,4-b]pyridin-1-yl)-N-(5-fluoro-[3,3′-bipyridin]-6-yl)acetamide], the 50% inhibitory concentration (IC50) is < 1000 nM.

For `CN1C(=O)C2=C(C1=O)N(CC(=O)Nc1ccc(-c3ccc(F)nc3)nc1)CCC2` [Compound 108, N-(6′-fluoro-[2,3′-bipyridin]-5-yl)-2-(6-methyl-5,7-dioxo-2,3,4,5,6,7-hexahydro-1H-pyrrolo[3,4-b]pyridin-1-yl)acetamide], the IC50 was < 1000 nM.

On to `Cc1ncccc1-c1ccc(NC(=O)CN2CCCC3=C2C(=O)N(C2CC2)C3=O)nc1` [Compound 110, 2-(6-cyclopropyl-5,7-dioxo-2,3,4,5,6,7-hexahydro-1H-pyrrolo[3,4-b]pyridin-1-yl)-N-(2′-methyl-[3,3′-bipyridin]-6-yl)acetamide], for which the IC50 is < 1000 nM.

As to `Cc1ccncc1-c1ccc(NC(=O)CN2CCCC3=C2C(=O)N(C2CC2)C3=O)nc1` [Compound 111, 2-(6-cyclopropyl-5,7-dioxo-2,3,4,5,6,7-hexahydro-1H-pyrrolo[3,4-b]pyridin-1-yl)-N-(4′-methyl-[3,3′-bipyridin]-6-yl)acetamide], the IC50 is < 1000 nM.

Take `Cc1nc(NC(=O)CN2CCCC3=C2C(=O)N(C)C3=O)ccc1-c1cccnc1` [Compound 112]: the IC50 is < 10000 nM.

Take `Cc1cc(-c2cccnc2)cnc1NC(=O)CN1CCCC2=C1C(=O)N(C)C2=O` [Compound 113, 2-(6-methyl-5,7-dioxo-2,3,4,5,6,7-hexahydro-1H-pyrrolo[3,4-b]pyridin-1-yl)-N-(5-methyl-[3,3′-bipyridin]-6-yl)acetamide]: the IC50 was > 10000 nM.

As for `Cc1cc(NC(=O)CN2CCCC3=C2C(=O)N(C)C3=O)ncc1-c1cccnc1` [Compound 114, 2-(6-methyl-5,7-dioxo-2,3,4,5,6,7-hexahydro-1H-pyrrolo[3,4-b]pyridin-1-yl)-N-(4-methyl-[3,3′-bipyridin]-6-yl)acetamide], the concentration for half-maximal inhibition (IC50) is < 5000 nM.

Regarding `CN1C(=O)C2=C(C1=O)N(CC(=O)Nc1ccc(-c3cnccn3)cc1)CCC2` [Compound 118, 2-(6-methyl-5,7-dioxo-2,3,4,5,6,7-hexahydro-1H-pyrrolo[3,4-b]pyridin-1-yl)-N-(4-(pyrazin-2-yl)phenyl)acetamide], the 50% inhibitory concentration (IC50) was < 100 nM.

With `CC(C(=O)Nc1cc(F)c(-c2cccnc2)cn1)N1CCCC2=C1C(=O)N(C)C2=O` (stereo not shown) [Compound 119, N-(4-fluoro-3,3′-bipyridin-6-yl)-2-(6-methyl-5,7-dioxo-2,3,4,5,6,7-hexahydro-1H-pyrrolo[3,4-b]pyridin-1-yl)propanamide], the IC50 was < 100 nM.

`Cc1cc(NC(=O)CN2CCCC3=C2C(=O)N(C2CC2)C3=O)ncc1-c1cccnc1` [Compound 120, 2-(6-cyclopropyl-5,7-dioxo-2,3,4,5,6,7-hexahydro-1H-pyrrolo[3,4-b]pyridin-1-yl)-N-(4-methyl-[3,3′-bipyridin]-6-yl)acetamide]: the IC50 is < 1000 nM.

In the case of `Cc1ncccc1-c1ccc(NC(=O)CN2CCCC3=C2C(=O)N(C2CC2)C3=O)cn1` [Compound 121, 2-(6-cyclopropyl-5,7-dioxo-2,3,4,5,6,7-hexahydro-1H-pyrrolo[3,4-b]pyridin-1-yl)-N-(2′-methyl-2,3′-bipyridin-5-yl)acetamide], the IC50 is < 100 nM.

Consider `CN1C(=O)C2=C(C1=O)N(CC(=O)Nc1ccc(-c3ccncc3)nc1)CCC2` [Compound 122, N-(2,4′-bipyridin-5-yl)-2-(6-methyl-5,7-dioxo-2,3,4,5,6,7-hexahydro-1H-pyrrolo[3,4-b]pyridin-1-yl)acetamide], for which the concentration for half-maximal inhibition (IC50) was < 1000 nM.

Regarding `Cc1nc(-c2cccnc2)ccc1NC(=O)CN1CCCC2=C1C(=O)N(C1CC1)C2=O` [Compound 123, 2-(6-cyclopropyl-5,7-dioxo-2,3,4,5,6,7-hexahydro-1H-pyrrolo[3,4-b]pyridin-1-yl)-N-(6-methyl-2,3′-bipyridin-5-yl)acetamide], the 50% inhibitory concentration (IC50) was > 10000 nM.

The values are drawn from patent US9981964B2 (Agency for Science, Technology and Research, priority 2013, dated 2018).
